# Patent US20260144807A1, “METHOD OF ADMINISTRATION OF A PARENTERAL FORMULATION COMPRISING A P[…]” (Cybin UK LTD, priority 2022, published 2026)
# Experiments:
# [1] = test system: healthy volunteers; settings: single oral dose, interim analysis; cited from earlier work
# [2] = test system: patients with major depressive disorder; test: MADRS assessment, NCT04673383 Part B, IV infusion over about 10 minutes; format: in vivo, human; design: average percent reduction from baseline (MADRS) / Mean % reduction (MADRS): concentration or dose not given beside the values
# Excerpt: Therapeutic benefit or efficacy may be assessed using a rating scale. For patients with a depressive disorder such as MDD or TRD, the Montgomery-Asberg Depression Rating Scale (MADRS), the Hamilton Depression Rating Scale (HAMD-17) or the Beck's Depression Inventory (BDI-II) may be used. The rating scale is used prior to administration of the psychedelic agent, to provide a baseline assessment, and again after administration of the psychedelic agent.
# (§1) A double-blind, randomised, placebo-controlled study of intravenous doses of DMT fumarate, was carried out in patients with major depressive disorder, MDD, (ClinicalTrials.gov Identifier: NCT04673383, Part B). The protocol comprised the steps of:
# • MADRS assessment by an independent assessor
# (§2) • Administration of either a placebo or a dose of DMT fumarate by continuous intravenous infusion over a dosing period of about 10 minutes. • Tolerability assessment following cessation of the psychedelic experience. Study Day 8 (±1 day), Study Day 15 (±1 day) • MADRS assessment
# • Administration of a dose of DMT fumarate by continuous intravenous infusion over a dosing period of about 10 minutes. • Tolerability assessment following cessation of the psychedelic experience. Study Day 22 (+1 day), Study Day 29 (+2 days), Day 45 (+2 days), Day 105 (+2 days) • MADRS assessment
# (§3) The administration of the study drug, DMT fumarate, in NCT04673383, Part B was in accordance with the present invention. Group A received one dose of active (DMT fumarate) on Day 1 and were assessed using MADRS at Day 8 and Day 15. Group P received a placebo on Day 1, and were also assessed at Day 8 and Day 15. This comprised the blinded phase of the study. Group P subsequently received one dose of active in the open label phase of the study on Day 15 and were assessed at Day 22 and 29. Data from this group following administration of the active dose is represented as PA.
# As described above, Group A received one dose of active (DMT fumarate) on Day 1 and were assessed at Day 8 and Day 15. Group P received a placebo on Day 1, and were also assessed at Day 8 and Day 15.
# [3] = test system: patients with major depressive disorder; test: Challenging Experience Questionnaire (CEQ), NCT04673383 Part B; format: in vivo, human
# Excerpt: (§4) Garcia-Romeu and Richards (International review of Psychiatry, Vol. 30, 2018, issue 4, pp 291-316) discuss the use of serotonergic hallucinogens in clinical interventions and state ‘issues, such as recent suicidality, drug or alcohol use disorders, dissociative disorders, and past history of trauma should be taken into account depending on the therapeutic target, as these may be exacerbated by high-dose psychedelic administration or increase risk for adverse events. ‘They further state: Psychodynamic-autobiographical experiences are predominated by emotional recollections and reflections on significant previous or current life events and relationships. […] A patient's subjective experience may be evaluated by the Challenging Experience Questionnaire (CEQ), a questionnaire designed to measure challenging psychological experiences associated with a psychedelic experience.
# as §3, with “This comprised the blinded phase of the study.” left out, “Data from this group following administration of the active dose is represented as PA.” left out
# [4] = test system: healthy adults; test: Tolerability question after psychedelic experience, NCT04673383 Part A; format: in vivo, human; settings: all healthy volunteers, highest doses tested
# Excerpt: Tolerability may be assessed following cessation of the subjective psychedelic experience by asking the patent the question ‘Do you wish you had not gone through that experience?’ Yes responses are deemed to indicate poor tolerability, while No responses are deemed to indicate good tolerability.
# All patient participants in this study, after receiving one dose of DMT fumarate, answered NO to the question ‘Do you wish you had not gone through that experience?’, indicating good tolerability of the psychedelic agent. In Part A of the same study, healthy adults received single escalating doses of DMT fumarate. All healthy volunteers answered “no” to the same question at the highest doses tested.
# [5] = test system: patients with major depressive disorder; test: Beck Depression Inventory (BDI), NCT04673383 Part B; format: in vivo, human
# Method: as §1
# (§5) • Administration of either a placebo or a dose of DMT fumarate by continuous intravenous infusion over a dosing period of about 10 minutes. • Tolerability assessment following cessation of the psychedelic experience. Study Day 8 (±1 day), Study Day 15 (±1 day) • MADRS assessment […]
# as §3, with “This comprised the blinded phase of the study.” left out, “Data from this group following administration of the active dose is represented as PA.” left out
# Analysis of patient-reported depression scores corroborated the MADRS assessments conducted by independent clinical raters. Improvements in depression scores from baseline were observed across all study timepoints in patients receiving at least one dose of active, as measured by the Beck Depression Inventory (“BDI”). […]
# [6] = Drug related serious adverse events, NCT04673383; format: in vivo, human; settings: reported at the date of filing
# Method: A double-blind, randomised, placebo-controlled study of intravenous doses of DMT fumarate, was carried out in patients with major depressive disorder, MDD, (ClinicalTrials.gov Identifier: NCT04673383, Part B).
# [7] = test system: patients with major depressive disorder; test: Warwick-Edinburgh Mental Wellbeing Scale (WEMWBS), NCT04673383 Part B; format: in vivo, human
# Method: as §1, §5
# as §3, with “This comprised the blinded phase of the study.” left out, “Data from this group following administration of the active dose is represented as PA.” left out
# Further, a rapid and sustained improvement in wellbeing was observed following administration of at least one dose of DMT fumarate in accordance with the invention, with supportive therapy, as measured by the Warwick-Edinburgh Mental Wellbeing Scale (“WEMWBS”).
# [8] = test system: healthy adults; test: Challenging Experience Questionnaire (CEQ), NCT04673383 Part A; format: in vivo, human; settings: active group, healthy participants
# Excerpt: as §4, with “experience. […]” for “experience.”
# The participant's experience was evaluated using the Challenging Experience Questionnaire (CEQ). In Part A of the study, a mean CEQ score of 0.172 was recorded for the active group, compared with a mean of 0.052 for the placebo group. […]
# [9] = test system: patients with major depressive disorder; test: State-Trait Anxiety Inventory-Trait (STAI-T), NCT04673383 Part B; format: in vivo, human
# Method: as §1, §2
# • Administration of a dose of DMT fumarate by continuous intravenous infusion over a dosing period of about 10 minutes. • Tolerability assessment following cessation of the psychedelic experience. […]
# as §3, with “This comprised the blinded phase of the study.” left out, “Data from this group following administration of the active dose is represented as PA.” left out
# Measures assessing patients' anxiety and wellbeing, areas which are often negatively impacted by depression, were also analysed across the study. […]
# [10] = test system: healthy volunteer participants; settings: all three healthy volunteers, 0.3 mg/kg, IV bolus; cited from earlier work
# [11] = test system: healthy participants; test: Perceived duration of the psychedelic experience; format: in vivo, human; settings: 9 mg IV
# Excerpt: The onset and cessation of the psychedelic experience may be assessed by the attending clinician, psychiatrist or therapist. ‘Duration of the psychedelic experience’ as used herein refers to the time from the start of the continuous parenteral administration to the cessation of the psychedelic experience. The duration of the psychedelic experience may vary between patients. The term ‘duration’ as used herein, encompasses the mean duration of the psychedelic experience.
# The safety and tolerability of a single intravenous dose of a deuterated analogue of DMT is being investigated in healthy participants in an on-going clinical trial. The administration of the deuterated analogue of DMT is in accordance with the present invention. Tolerability is assessed post-psychedelic experience by the question ‘Do you wish you had not gone through that experience?’.
# A 9 mg dose of the deuterated analogue was administered in accordance with the present invention to a cohort of 6 psychedelic-experienced healthy participants. Preliminary data were compared with pharmacokinetic data from Part A of NCT04673383, Cohort 1 (9 mg DMT fumarate).
# IRVAS is a rating scale which measures the intensity of the psychedelic experience. Additionally, the perceived duration of the psychedelic experience was in the range 37-57 minutes for the deuterated analogue, compared with approximately 25 minutes for DMT.
# [12] = test system: patients with major depressive disorder; settings: baseline (7 subjects) vs 1 day after final administration of 0.1 mg/kg and 0.3 mg/kg doses (6 subjects); cited from earlier work
# [13] = test system: 3 healthy volunteers and 6 patients; settings: 0.3 mg/kg, IV bolus; cited from earlier work
# [14] = test system: patients with major depressive disorder; test: D'Souza et al. HAMD-17 scores; format: in vivo, human; settings: 1 day after final administration of 0.1 and 0.3 mg/kg doses
# Method: D'Souza et al report an ‘exploratory study of the dose-related safety, tolerability, and efficacy of dimethyltryptamine (DMT) in healthy volunteers and major depressive disorder’ (D. C. D'Souza, S. A. Syed, L. T. Flynn, H. Safi-Aghdam, N. V. Cozzi and M. Ranganathan, Neuropsychopharmacology (2022) 47:1854-1862). Seven patients with major depressive disorder received two doses of DMT hemifumarate (0.1 mg/kg, followed by 0.3 mg/kg) at least 48 hours apart. The participants were administered DMT by intravenous push over 30-60 seconds, i.e., a bolus injection.
# D'Souza et al report that the mean change in HAMD-17 scores between baseline (7 subjects) and 1 day after final administration of both a 0.1 mg/kg and a 0.3 mg/kg dose (6 subjects) was −4.5 (Table S6). This improvement approximates to an improvement on the MADRS scale of −3.9.
# [15] = Group PA, 2 weeks, study Day 29
# [16] = day 8, blinded data for all patients (average of placebo and DMT fumarate patients)
# [17] = Group PA, open label phase, Day 105
smiles,measurement,setting,value
[2H]C([2H])([2H])N(C([2H])([2H])[2H])C([2H])([2H])C([2H])([2H])c1c[nH]c2cccc(O)c12 [CYB003],average duration of peak effects,[1],≈ 2 hours
same,time to psychedelic effects,[1],≤ 15 min
"CN(C)CCc1c[nH]c2ccccc12.O=C(O)/C=C/C(=O)O [DMT fumarate, N,N-dimethyltryptamine fumarate]",difference in mean change from baseline (MADRS) between Group A and Group P,"[2]; Day 8, active vs placebo, p=0.002",−10.8 points
same,difference in mean change from baseline (MADRS) between Group A and Group P,"[2]; Day 15, active vs placebo, p=0.02",−7.4 points
same,Mean change from baseline (MADRS),"[2]; Group A, 1 week from active dose, study Day 8",−12.7
same,% of subjects with a MADRS score ≤ 10,"[2]; Group A, 1 week, study Day 8",43.8%
same,% of subjects with ≥ 50% reduction from BL (MADRS),"[2]; Group A, 1 week, study Day 8",43.8%
same,Mean % reduction (MADRS),"[2]; Group A, 1 week, study Day 8",−48.2%
same,Mean change from baseline (MADRS),"[2]; Group A, 2 weeks from active dose, study Day 15",−11.0
same,% of subjects with a MADRS score ≤ 10,"[2]; Group A, 2 weeks, study Day 15",29.4%
same,% of subjects with ≥ 50% reduction from BL (MADRS),"[2]; Group A, 2 weeks, study Day 15",35.3%
same,Mean % reduction (MADRS),"[2]; Group A, 2 weeks, study Day 15",−41.0%
same,Mean change from baseline (MADRS),"[2]; Group PA (open label active after placebo), 1 week from active dose, study Day 22",−10.6
same,% of subjects with a MADRS score ≤ 10,"[2]; Group PA, 1 week, study Day 22",42.9%
same,% of subjects with ≥ 50% reduction from BL (MADRS),"[2]; Group PA, 1 week, study Day 22",42.9%
same,Mean % reduction (MADRS),"[2]; Group PA, 1 week, study Day 22",−40.6%
same,Mean change from baseline (MADRS),"[2]; Group PA, 2 weeks from active dose, study Day 29",−10.8
same,% of subjects with a MADRS score ≤ 10,[2]; [15],31.3%
same,% of subjects with ≥ 50% reduction from BL (MADRS),[2]; [15],43.8%
same,Mean % reduction (MADRS),[2]; [15],−36.7%
same,"difference in mean total MADRS score, statistical analysis","[2]; Group PA, all open-label study timepoints, p<0.05",statistically significant difference
same,average improvement on the MADRS score,[2]; [16],−7.5
same,average percent reduction from baseline (MADRS),[2]; [16],−18.4%
same,mean CEQ score,[3]; Group A,0.360
same,mean CEQ score,[3]; Group PA,0.350
same,answer to 'Do you wish you had not gone through that experience?' (tolerability),[4],no
same,Self-Reported Depression (BDI CFB),"[5]; Active, blinded phase, Day 15, p = 0.002 active vs. placebo",−17.4
same,Self-Reported Depression (BDI CFB),[5]; [17],−19.7
same,drug related serious adverse events,[6],no drug related serious adverse events
same,Wellbeing (WEMWBS CFB),"[7]; Active, blinded phase, Day 15 (two-weeks following blinded dose)",10.1
same,Wellbeing (WEMWBS CFB),[7]; [17],9.8
same,mean CEQ score,[8],0.172
same,Anxiety (STAI-T CFB),"[9]; Active, blinded phase, Day 15, p = 0.03 active vs. placebo",−11.0
same,Anxiety (STAI-T CFB),"[9]; Group PA, open label phase, Day 105 (12-weeks following the open label dose)",−14.2
"CN(C)CCc1c[nH]c2ccccc12 [DMT, 2-(1H-indol-3-yl)-N,N-dimethylethanamine]","tolerability score (0-100, 0=intolerable, 100=well tolerated)",[10],greater than 70
same,perceived duration of the psychedelic experience,[11],approximately 25 minutes
same,mean change in HAMD-17 scores,[12],−4.5
same,mean score to 'how likely are you to use this drug?' (scale 0 to 100),[13],22.44
same,improvement on the MADRS scale approximated from HAMD-17 change,[14],~−3.9
